{"source": "patent US8927732B2", "about": "“Biotin stannane for HPLC-free radioiodination” (General Electric Company, priority 2012, dated 2015)", "biological_target": "streptavidin resin column (Streptomyces avidinii, UniProt P22629)", "sequence (P22629 25-183)": "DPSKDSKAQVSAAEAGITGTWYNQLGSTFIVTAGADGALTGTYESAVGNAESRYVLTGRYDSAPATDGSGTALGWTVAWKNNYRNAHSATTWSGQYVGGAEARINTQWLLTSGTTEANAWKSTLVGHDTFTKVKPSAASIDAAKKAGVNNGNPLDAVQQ", "experiment": "Purification with streptavidin resin column in the presence of additives (solubility enhancing agent study)", "conditions": "eluent PBS", "method": "To an Eppendorf vial were added 56.6 μg precursor 4 (56.6 μL, 1.0 mg/mL, EtOH), 5 μL AcOH, Na^125I (18.5 MBq or 500 μCi, pH 8˜11 in aqueous NaOH) and iodogen (50 μL, 0.2 mg/mL in EtOH), subsequently. The reaction mixture was allowed to sit at room temperature for 20 minutes, with occasional swirling. After quenching with 100 μL of Na2S2O3 (0.1 M aq.), the mixture was diluted with 100 μL of EtOH then added to the binding buffer tested as described below.\nA streptavidin resin column was packed using 1.6 mL of resin slurry (0.8 mL of actual resin) as described previously and washed with the appropriate binding buffer (4.0 mL, 5 cv). An 80 μL aliquot of the above radiolabeling mixture was diluted with the appropriate binding buffer (920 μL) and mixed for 10 minutes before loading onto streptavidin column. After incubation for 20 minutes, radiolabeled product was eluted off the column with binding buffer (three 0.5 mL fractions collected). All fractions (including a forerun fraction collected while loading the reaction mixture onto column) were subjected to HPLC analysis before being combined."}
{"smiles": "O=C(OCc1ccccc1)c1cccc([125I])c1", "note": "[Compound 125I-3IBABn]", "values": [{"measurement": "Activity left on column", "setting": "10% HP-β-CD w/v", "value": 16, "unit": "%"}, {"measurement": "Activity left on column", "setting": "20% HP-β-CD w/v", "value": 13, "unit": "%"}, {"measurement": "Activity left on column", "setting": "40% HP-β-CD w/v", "value": 7, "unit": "%"}]}
